Test results: PubChem BioAssay AID463136 (University of Pittsburgh Molecular Library Screening Center, 2010)
Inconclusive results are not listed. Active and inactive are the calls of the source. How the calls were made is not given here.

Assays:
[1] = test system: HCS imaging, dynein-mediated cargo transport inhibition; experiment: blockers of dynein-driven microtubule transport – imaging, high-content imaging, dose response (AID 463136);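 further: mouse mammary adenocarcinoma 3617.4 cells expressing GFP-tagged rat glucocorticoid receptor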; on inhibition: reference of the scale not given here
[2] = as above; conditions: HCS imaging, dynein-mediated cargo transport inhibition; inhibition at max concentration; at 50 µM; stronger effect = higher value

SMILES	IC50 [1]	inhibition [2] [%]
Cc1ccc(-c2cn3nc(-c4ccccc4)c(-c4ccccc4)nc3n2)cc1	40.2 µM	93.2
COc1ccccc1NS(=O)(=O)c1cc([N+](=O)[O-])ccc1N/N=C/c1c[nH]c2ccccc12	> 50 µM (inactive)	21.9
O=C1C(Cl)=C(NCCN2CCCCC2)C(=O)c2ccccc21	31.8 µM	63.5
CC(C)N1C/C(=C/c2ccsc2)C(=O)/C(=C/c2ccsc2)C1	40.1 µM	69.2
CCN1/C(=C/c2ccc3ccc(C)cc3[n+]2CC)Sc2ccccc21	2.13 µM	98.5
CC(C)CC(=O)/C=C/n1c(=S)oc2ccccc21	> 50 µM (inactive)	24.5
CCCn1nc(-c2ccccc2)c2nc3ccccc3nc21	> 50 µM (inactive)	-0.033
CC1CCc2cc(F)ccc2N1C(=O)CCl (configuration not stated)	10.5 µM	77.7
CCOC(=O)COc1ccc(/C=C/[N+](=O)[O-])c(OCC(=O)OCC)c1	11.4 µM	82.8
C=CS(=O)(=O)c1sc(Cl)c(N2CCOCC2)c1[N+](=O)[O-]	> 50 µM (inactive)	10.2
CC(C)(C)c1cc(CN(CCO)CCO)cc(C(C)(C)C)c1O	> 50 µM (inactive)	33.9
